Legend:
CDK1/Cyclin B = target: T1, CDK1/Cyclin B (Homo sapiens, UniProt P06493); test: Enzymatic assay for CDK1 (LANCE Ultra kinase assay, FRET based); format: biochemical; conditions: ATP at Km; read-out: CDK1 enzymatic activity IC50
T1 construct: purchased Invitrogen PR4768C
How it was run: (§1)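 Inhibition of purified CDK/cyclin complexes was measured with ATP at its Km, using a ULight-labeled peptide substrate. Substrate phosphorylation was detected by FRET with a Europium-labeled anti-phospho-antibody.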

CDK5/p25 = target: T2, CDK5/p25 (Homo sapiens, UniProt Q00535); test: Enzymatic assay for CDK5 (LANCE Ultra kinase assay, FRET based); format: biochemical; conditions: ATP at Km
T2 construct: purchased Invitrogen PR8543B
How it was run: (§2)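 Compounds tested as 8 doses in 4-fold steps against CDK2/Cyclin A ([…]) or CDK5/p25 ([…]), with ATP at its Km and 68 nM ULight-MBP substrate. After 60 min at 23° C., EDTA plus Eu-labelled anti-phospho-MBP added; TR-FRET (615/665 nm) read after another 60 min.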

H460 = test: Cellular H460 viability assay (CellTiter-Glo, 72 hours); format: cell-based; conditions: Homo sapiens, NCI-H460; H460 cells
Procedure: All cell lines were routinely tested for mycoplasma.
To effect of the CDK7 inhibitor to inhibit the growth of target cancer cells, viability assay were conducted a 72 hour time period. Briefly, the candidate cell line was plated in 96 well plate at the following density of cells respectively. 1×10^4 cells/well for MV4-11, 5×10^3 for H460 and OVCAR-3, and 1×10^3 for A2780. […] DMSO solvent without compound served as a control and final DMSO concentration lest than 0.1%. After 72 hours of incubation at 37° C., 5% CO2 incubator, cells were analyzed for the viability using the CellTiter-Glo Luminescent Cell Viability Assay (Promega, Cat #G7570). All viability assays were performed in duplicate and Luminescence was read using an Envision (Perkin Elmer, USA). Data was analyzed using XLfit software.

CDK7/Cyclin H/MNAT1 = target: T3, CDK7/Cyclin H/MNAT1 (Homo sapiens, UniProt P50613); test: Enzymatic assay for CDK7 (LANCE Ultra kinase assay, FRET based); format: biochemical; conditions: for IC50: ATP at Km
T3 construct: purchased Invitrogen PR6749B
How it was run: as §1

MV4-11 = test: Cellular MV4-11 viability assay (CellTiter-Glo, 72 hours); format: cell-based; conditions: Homo sapiens; MV4-11 cells
How it was run: (§3)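 Cells grown in RPMI-1640 with 10% FBS were seeded at 1×10^4/well (MV4-11), 5×10^3 (OVCAR-3) or 1×10^3 (A2780), then dosed 24 h later with compound at 0.0015 uM to 10 uM, DMSO <0.1%. Viability was read by CellTiter-Glo luminescence after 72 h at 37° C, in duplicate.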

OVCAR-3 = OVCAR-3 viability assay (CellTiter-Glo, 72 hours); format: cell-based; conditions: Homo sapiens; OVCAR-3 cells
How it was run: as §3

CDK2/Cyclin A = target: T4, CDK2/Cyclin A (Homo sapiens, UniProt P24941); test: Enzymatic assay for CDK2 (LANCE Ultra kinase assay, FRET based); format: biochemical; conditions: ATP at Km
T4 construct: purchased Invitrogen PV6290
How it was run: as §2

A2780 = A2780 viability assay (CellTiter-Glo, 72 hours); format: cell-based; conditions: Homo sapiens; A2780 cells
How it was run: as §3

T3 sequence (P50613 whole entry): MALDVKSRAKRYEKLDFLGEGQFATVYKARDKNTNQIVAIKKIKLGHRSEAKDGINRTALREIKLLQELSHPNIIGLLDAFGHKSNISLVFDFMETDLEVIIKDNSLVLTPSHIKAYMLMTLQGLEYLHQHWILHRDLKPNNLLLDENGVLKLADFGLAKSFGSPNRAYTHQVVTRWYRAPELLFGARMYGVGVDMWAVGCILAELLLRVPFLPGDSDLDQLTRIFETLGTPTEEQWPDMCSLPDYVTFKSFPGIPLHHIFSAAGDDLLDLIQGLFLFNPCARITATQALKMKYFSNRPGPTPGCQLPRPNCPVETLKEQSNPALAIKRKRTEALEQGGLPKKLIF
T3 sequence (P51946 whole entry partner): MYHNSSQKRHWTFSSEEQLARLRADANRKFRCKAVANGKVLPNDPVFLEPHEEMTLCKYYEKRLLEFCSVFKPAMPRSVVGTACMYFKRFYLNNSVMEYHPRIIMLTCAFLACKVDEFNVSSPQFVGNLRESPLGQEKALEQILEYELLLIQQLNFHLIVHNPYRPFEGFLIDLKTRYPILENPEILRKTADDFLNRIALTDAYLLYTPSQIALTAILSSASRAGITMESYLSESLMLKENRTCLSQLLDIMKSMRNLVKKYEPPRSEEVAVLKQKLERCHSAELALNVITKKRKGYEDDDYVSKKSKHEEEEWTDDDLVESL
T3 sequence (P51948 whole entry partner): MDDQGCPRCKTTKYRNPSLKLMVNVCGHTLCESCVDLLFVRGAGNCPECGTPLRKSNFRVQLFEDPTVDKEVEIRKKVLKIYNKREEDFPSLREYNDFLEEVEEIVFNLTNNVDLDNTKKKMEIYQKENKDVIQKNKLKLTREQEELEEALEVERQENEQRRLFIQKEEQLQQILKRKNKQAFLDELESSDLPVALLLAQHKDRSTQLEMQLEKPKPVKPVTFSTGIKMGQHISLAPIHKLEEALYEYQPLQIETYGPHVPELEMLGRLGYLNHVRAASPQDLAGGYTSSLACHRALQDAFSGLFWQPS
T1 sequence (P06493 whole entry): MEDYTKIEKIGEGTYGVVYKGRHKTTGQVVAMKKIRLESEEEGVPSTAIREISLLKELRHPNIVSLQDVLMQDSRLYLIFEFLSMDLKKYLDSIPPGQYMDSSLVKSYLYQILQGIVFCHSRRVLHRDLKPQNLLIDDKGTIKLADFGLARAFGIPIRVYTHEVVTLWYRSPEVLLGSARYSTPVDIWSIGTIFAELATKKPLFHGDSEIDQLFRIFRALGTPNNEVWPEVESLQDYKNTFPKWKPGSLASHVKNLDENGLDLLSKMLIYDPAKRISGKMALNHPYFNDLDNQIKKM
T1 sequence (P14635 whole entry partner): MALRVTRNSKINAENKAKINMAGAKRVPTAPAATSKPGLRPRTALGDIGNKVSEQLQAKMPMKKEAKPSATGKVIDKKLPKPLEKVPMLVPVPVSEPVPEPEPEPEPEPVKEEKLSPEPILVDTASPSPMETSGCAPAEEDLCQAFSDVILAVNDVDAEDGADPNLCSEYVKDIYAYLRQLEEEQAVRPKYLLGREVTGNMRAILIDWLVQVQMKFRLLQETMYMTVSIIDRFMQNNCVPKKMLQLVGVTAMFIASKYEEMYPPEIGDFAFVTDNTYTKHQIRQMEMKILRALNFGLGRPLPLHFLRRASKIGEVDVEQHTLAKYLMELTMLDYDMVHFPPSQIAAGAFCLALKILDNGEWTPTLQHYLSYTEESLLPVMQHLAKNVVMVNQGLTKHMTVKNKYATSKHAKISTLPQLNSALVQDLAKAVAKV
T2 sequence (Q00535 whole entry): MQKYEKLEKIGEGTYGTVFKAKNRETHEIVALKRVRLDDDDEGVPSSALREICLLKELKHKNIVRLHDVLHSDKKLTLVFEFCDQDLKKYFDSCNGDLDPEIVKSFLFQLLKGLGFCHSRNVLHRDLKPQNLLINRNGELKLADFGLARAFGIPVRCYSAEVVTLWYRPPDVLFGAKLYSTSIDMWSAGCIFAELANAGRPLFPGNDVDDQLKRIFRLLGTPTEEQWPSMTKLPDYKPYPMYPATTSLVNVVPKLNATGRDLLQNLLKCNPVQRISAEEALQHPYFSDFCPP
T2 sequence (Q15078 99-307 partner limits assumed): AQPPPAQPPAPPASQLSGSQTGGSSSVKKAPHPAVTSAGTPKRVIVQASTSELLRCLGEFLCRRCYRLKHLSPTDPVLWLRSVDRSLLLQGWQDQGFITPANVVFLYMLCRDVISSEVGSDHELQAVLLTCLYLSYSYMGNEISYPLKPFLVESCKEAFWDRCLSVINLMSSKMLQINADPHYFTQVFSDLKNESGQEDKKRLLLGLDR

| IC50 (CDK1/Cyclin B) | IC50 (CDK5/p25) | IC50 (H460) | IC50 (CDK7/Cyclin H/MNAT1) | CDK1/CDK7: Selectivity of CDK7 inhibition over CDK1 inhibition (CDK7/Cyclin H/MNAT1) | CDK2/CDK7: Selectivity of CDK7 inhibition over CDK2 inhibition (CDK7/Cyclin H/MNAT1) | CDK5/CDK7: Selectivity of CDK7 inhibition over CDK5 inhibition (CDK7/Cyclin H/MNAT1) | IC50 (MV4-11) | IC50 (OVCAR-3) | IC50 (CDK2/Cyclin A) | IC50 (A2780) | SMILES |
| --- | --- | --- | --- | --- | --- | --- | --- | --- | --- | --- | --- |
| > 1000 nM | > 1000 nM | < 1000 nM | < 100 nM | A (A indicates [fold] > 500) | A (A indicates [fold] > 500) | A (A indicates [fold] > 500) | < 1000 nM | < 1000 nM | > 1000 nM | < 1000 nM | CC(C)c1cnn2c(NCc3ccccc3-c3nccc4cc(NC(=O)/C=C/CN(C)C)ccc34)nc(NC[C@H]3CCNC[C@@H]3O)nc12 [Compound 26] |
| > 1000 nM | > 1000 nM | < 1000 nM | < 100 nM | B (B indicates 50 < [fold] ≤ 500) | B (B indicates 50 < [fold] ≤ 500) | B (B indicates 50 < [fold] ≤ 500) | < 1000 nM | < 1000 nM | > 1000 nM | < 1000 nM | CC(C)c1cnn2c(NCc3ccccc3-c3nccc4cc(NC(=O)/C=C/CN(C)C)ccc34)nc(N[C@H]3CC[C@H](O)CC3)nc12 [Compound 27] |

From patent publication US12606561B2, “Substituted pyrazolo[1,5-a][1,3,5]triazines as CDK inhibitors” (QURIENT CO., LTD., priority 2018, dated 2026)
